# According to US6506749B2, “7-oxo-pyridopyrimidines (I)” (Syntex (U.S.A.) LLC, priority 2000, dated 2003):
row,Compound,melting point [°C]
1,Cl.Cn1c(=O)c(-c2ccccc2Cl)cc2cnc(N[C@H]3CCCCNC3=O)nc21,140 to 144
2,COC1CCC(Nc2ncc3cc(-c4ccccc4Cl)c(=O)n(C)c3n2)CC1.Cl (stereo not shown),189 to 192
3,Cl.Cn1c(=O)c(-c2ccccc2Cl)cc2cnc(NC3CC(C)(C)NC(C)(C)C3)nc21,> 300
4,CCCS(=O)(=O)N1CCC(Nc2ncc3cc(-c4ccccc4Cl)c(=O)n(C)c3n2)CC1.Cl,193.3 to 194.1
5,Cl.Cn1c(=O)c(-c2ccccc2Cl)cc2cnc(NC3CCN(S(=O)(=O)C(F)(F)F)CC3)nc21,134 to 140
6,Cl.Cn1c(=O)c(-c2ccccc2Cl)cc2cnc(NC3CCN(S(=O)(=O)CC(F)(F)F)CC3)nc21,215 to 219
7,Cl.Cn1c(=O)c(-c2ccccc2Cl)cc2cnc(NC3CCS(=O)(=O)C3)nc21 (stereo not shown),256 to 260
8,Cc1ccccc1-c1cc2cnc(NC3CCOCC3)nc2n(C)c1=O.Cl,222.9 to 225.9
9,CC(C)S(=O)(=O)N1CCC(Nc2ncc3cc(-c4ccccc4Cl)c(=O)n(C)c3n2)CC1.Cl,132 to 136
10,CCS(=O)(=O)N1CCC(Nc2ncc3cc(-c4ccccc4Cl)c(=O)n(C)c3n2)CC1.Cl,144 to 150
11,COc1ccccc1-c1cc(/C=N\C(=N)NC2CCOCC2)cn(C)c1=O.Cl,212 to 213.7
12,Cl.Cn1cc(/C=N\C(=N)NC2CCOCC2)cc(-c2ccccc2N)c1=O,210.7 to 211.9
13,Cl.Cn1c(=O)c(-c2ccccc2Cl)cc2cnc(NN3CCN(CCO)CC3)nc21,274.4 to 274.8
14,Cc1ccccc1-c1cc2cnc(NC3CCN(S(C)(=O)=O)CC3)nc2n(C)c1=O.Cl,221.4 to 221.8
15,CCS(=O)(=O)N1CCC(Nc2ncc3cc(-c4ccccc4C)c(=O)n(C)c3n2)CC1.Cl,218.5 to 219.3
16,Cl.Cn1c(=O)c(-c2ccccc2Cl)cc2cnc(NC3CCOC3)nc21 (stereo not shown),193.9 to 194.5
17,Cl.Cn1c(=O)c(-c2ccccc2Cl)cc2cnc(N[C@@H]3CCOC3)nc21,171.9 to 173
18,Cl.Cn1c(=O)c(-c2ccccc2F)cc2cnc(NC3CCN(S(C)(=O)=O)CC3)nc21,205 to 207.5
19,CCS(=O)(=O)N1CCC(Nc2ncc3cc(-c4ccccc4F)c(=O)n(C)c3n2)CC1.Cl,192.5 to 195
20,Cl.Cn1c(=O)c(-c2ccccc2Cl)cc2cnc(NC3CCN(C(N)=O)CC3)nc21,192 to 202
21,CC(C)S(=O)(=O)N1CCC(Nc2ncc3cc(-c4ccccc4F)c(=O)n(C)c3n2)CC1.Cl,204 to 209

row,Compound,melting point [°C]
1,CCCS(=O)(=O)N1CCC(Nc2ncc3cc(-c4ccccc4F)c(=O)n(C)c3n2)CC1.Cl,206 to 209
2,Cl.Cn1c(=O)c(-c2ccccc2F)cc2cnc(NC3CCN(S(=O)(=O)C(F)(F)F)CC3)nc21,213.5 to 221
3,Cl.Cn1c(=O)c(-c2ccccc2F)cc2cnc(NC3CCN(S(=O)(=O)CC(F)(F)F)CC3)nc21,225.9 to 226.4
4,CC1C(=O)C(c2ccccc2Cl)=Cc2cnc(NOCc3ccccc3)nc21.Cl (stereo not shown),199.2 to 199.5
5,Cc1ccccc1-c1cc2cnc(NC3CCN(S(=O)(=O)C(C)C)CC3)nc2n(C)c1=O.Cl,142 to 149
6,Cc1ccccc1-c1cc2cnc(NC3CCN(S(=O)(=O)C(F)(F)F)CC3)nc2n(C)c1=O.Cl,153 to 162
7,COc1ccccc1-c1cc2cnc(NC3CCN(S(C)(=O)=O)CC3)nc2n(C)c1=O.Cl,202.7 to 204.3
8,CCS(=O)(=O)N1CCC(Nc2ncc3cc(-c4ccccc4OC)c(=O)n(C)c3n2)CC1.Cl,120.3 to 139.7
9,COc1ccccc1-c1cc2cnc(NC3CCN(S(=O)(=O)C(C)C)CC3)nc2n(C)c1=O.Cl,157 to 163.1
10,CCCS(=O)(=O)N1CCC(Nc2ncc3cc(-c4ccccc4OC)c(=O)n(C)c3n2)CC1.Cl,59.7 to 63.8
11,COc1ccccc1-c1cc2cnc(NC3CCN(S(=O)(=O)C(F)(F)F)CC3)nc2n(C)c1=O.Cl,140.8 to 147.3
12,COc1ccccc1-c1cc2cnc(NC3CCN(S(=O)(=O)CC(F)(F)F)CC3)nc2n(C)c1=O.Cl,194.7 to 196
13,Cl.Nn1c(=O)c(-c2ccccc2Cl)cc2cnc(NC3CCOCC3)nc21,207.1 to 215.9
14,Cl.O=c1c(-c2ccccc2Cl)cc2cnc(NC3CCS(=O)(=O)CC3)nc2n1CCO,182 to 186
15,CC(C)(C)Cn1c(=O)c(-c2ccccc2Cl)cc2cnc(NC3CCS(=O)(=O)CC3)nc21.Cl,223.7 to 230.2
16,CS(=O)(=O)N1CCC(Nc2ncc3cc(-c4ccccc4Cl)c(=O)n(N)c3n2)CC1.Cl,180.7 to 213.2
17,Cl.Cn1c(=O)c(-c2ccccc2Cl)cc2cnc(NC3CCC4(CC3)OCC(C)(CO)CO4)nc21 (stereo not shown),180.3 to 181.2
18,Cc1ccccc1-c1cc2cnc(NC3CCS(=O)(=O)CC3)nc2n(C)c1=O.Cl,240 to 258
19,Cl.Nn1c(=O)c(-c2ccccc2Cl)cc2cnc(NC3CCS(=O)(=O)CC3)nc21,240 to 243
20,CCn1c(=O)c(-c2ccccc2Cl)cc2cnc(NC3CCS(=O)(=O)CC3)nc21.Cl,285.2 to 286.7
21,CC(C)(CO)Nc1ncc2cc(-c3ccccc3Cl)c(=O)n(N)c2n1.Cl,145 to 163

row,Compound,melting point [°C]
1,CC(CCO)Nc1ncc2cc(-c3ccccc3Cl)c(=O)n(C)c2n1.Cl (stereo not shown),180.7 to 189.2
2,C[C@H](Nc1ncc2cc(-c3ccccc3Cl)c(=O)n(N)c2n1)C(C)(C)O.Cl,> 300
3,CC(C)CNn1c(=O)c(-c2ccccc2Cl)cc2cnc(NC3CCOCC3)nc21.Cl,111.3 to 117.5
4,Cl.O=c1[nH]c2nc(NC3(CO)CCCC3)ncc2cc1-c1ccccc1Cl,290 to 293
5,Cl.Cn1c(=O)c(-c2ccccc2Cl)cc2cnc(NC3CCC4(CC3)OCC(CO)CO4)nc21 (stereo not shown),146 to 150
6,Cl.Cn1c(=O)c(-c2ccccc2Cl)cc2cnc(NC3CCC(C(=O)O)CC3)nc21 (stereo not shown),263.6 to 264.2
7,Cl.O=c1[nH]c2nc(N[C@H]3CC[C@H](O)CC3)ncc2cc1-c1ccccc1Cl,191.1 to 194.3
8,Cl.Cn1c(=O)c(-c2ccccc2Cl)cc2cnc(NC3CCN(C=O)CC3)nc21,143 to 148
9,Cl.Cn1c(=O)c(-c2ccccc2Cl)cc2cnc(NC3CCC(CO)CC3)nc21 (stereo not shown),153.6 to 157
10,Cl.Cn1c(=O)c(-c2ccccc2Cl)cc2cnc(NCC3CCC(O)CC3)nc21 (stereo not shown),148 to 151.5
11,Cl.O=c1[nH]c2nc(NCC3CCC(O)CC3)ncc2cc1-c1ccccc1Cl (stereo not shown),205 to 213
12,Cl.Cn1c(=O)c(-c2ccccc2Cl)cc2cnc(NC3CCN(CC#N)CC3)nc21,228.3 to 228.9
13,CS(=O)(=O)N[C@H]1CC[C@H](Nc2ncc3cc(-c4ccccc4Cl)c(=O)[nH]c3n2)CC1.Cl,> 300
14,CC(=O)O[C@H]1CC[C@H](Nc2ncc3cc(-c4ccccc4Cl)c(=O)[nH]c3n2)CC1.Cl,> 300
15,Cl.Cn1c(=O)c(-c2ccccc2Cl)cc2cnc(NC3CCC4(CC3)NC(=O)NC4=O)nc21 (stereo not shown),> 300
16,COC(=O)CN1CCC(Nc2ncc3cc(-c4ccccc4Cl)c(=O)n(C)c3n2)CC1.Cl,150 to 168
17,Cl.O=C1CCC(Nc2ncc3cc(-c4ccccc4Cl)c(=O)[nH]c3n2)CC1,265.5 to 269.9
18,Cl.O=c1[nH]c2nc(NC3CCNCC3)ncc2cc1-c1ccccc1Cl,> 300
19,Cl.Cn1c(=O)c(-c2ccccc2Cl)cc2cnc(N[C@H]3CC[C@H](OC(N)=O)CC3)nc21,234.7 to 235.4
20,Cl.NC(=O)O[C@H]1CC[C@H](Nc2ncc3cc(-c4ccccc4Cl)c(=O)[nH]c3n2)CC1,291 to 293.5
21,Cl.Cn1c(=O)c(-c2ccccc2Cl)cc2cnc(N[C@H]3CC[C@H](NS(C)(=O)=O)CC3)nc21,260.9 to 261.1

row,Compound,melting point [°C]
1,CN(C)S(=O)(=O)N[C@H]1CC[C@H](Nc2ncc3cc(-c4ccccc4Cl)c(=O)n(C)c3n2)CC1.Cl,226.5 to 229
2,Cl.O=c1c(-c2ccccc2Cl)cc2cnc(N[C@H]3CC[C@H](O)CC3)nc2n1CCO,210.5 to 212
3,CN(C)S(=O)(=O)N[C@H]1CC[C@H](Nc2ncc3cc(-c4ccccc4Cl)c(=O)[nH]c3n2)CC1.Cl,262.2 to 262.5
4,CO[C@H]1CC[C@H](N(C)c2ncc3cc(-c4ccccc4Cl)c(=O)n(C)c3n2)CC1.Cl,182.3 to 183.1
5,CO[C@H]1CC[C@H](Nc2ncc3cc(-c4ccccc4Cl)c(=O)n(C)c3n2)CC1.Cl,218.2 to 218.5
6,Cl.Cn1c(=O)c(-c2ccccc2Cl)cc2cnc(NC3CCN(CCO)CC3)nc21,265.9 to 266.6
7,Cl.Cn1c(=O)c(-c2ccccc2Cl)cc2cnc(NC3CCN(CCS(C)(=O)=O)CC3)nc21,204.6 to 205.6
8,Cl.Cn1c(=O)c(-c2ccccc2Cl)cc2cnc(NC3CCN(S(C)(=O)=O)CC3)nc21,185 to 194
9,CNC(=O)CN1CCC(Nc2ncc3cc(-c4ccccc4Cl)c(=O)n(C)c3n2)CC1.Cl,64 to 102.6
10,Cl.O=C1CCC(Nc2ncc3cc(-c4ccccc4Cl)c(=O)n(-c4ccc(F)cc4)c3n2)CC1,242.7 to 243.6
11,Cl.Cn1c(=O)c(-c2ccccc2Cl)cc2cnc(N[C@H]3CC[C@@](C)(O)CC3)nc21,156 to 169
12,COC(=O)O[C@H]1CC[C@H](Nc2ncc3cc(-c4ccccc4Cl)c(=O)n(C)c3n2)CC1.Cl,213.9 to 214.4
13,Cl.O=c1[nH]c2nc(NC3CCOCC3)ncc2cc1-c1ccccc1Cl,> 300
14,Cl.O=c1c(-c2ccccc2Cl)cc2cnc(NC3CCOCC3)nc2n1-c1ccc(F)cc1,150 to 154
15,Cl.Cn1c(=O)c(-c2ccccc2Cl)cc2cnc(NC3CCN(CC(F)(F)F)CC3)nc21,180 to 183
16,CS(=O)(=O)N1CCC(Nc2ncc3cc(-c4ccccc4Cl)c(=O)n(CC(F)(F)F)c3n2)CC1.Cl,148.6 to 151.6
17,Cl.N#CCn1c(=O)c(-c2ccccc2Cl)cc2cnc(NC3CCOCC3)nc21,230.2 to 230.4
18,Cl.O=c1c(-c2ccccc2Cl)cc2cnc(NC3CCOCC3)nc2n1CCO,217 to 220
19,CCOC(=O)C1CCC(Nc2ncc3cc(-c4ccccc4Cl)c(=O)n(C)c3n2)CC1.Cl (stereo not shown),192.1 to 198.3
